Experimental data reported in patent publication US8163718B2, “Nucleoside analogues containing phosphonate or phosphonamide groups” (Gilead Sciences, Inc., priority 2008, dated 2012).

Assays:
Experiment in all cases: Cytostatic cell culture assay (GI50), SRB
Format in all cases: cell-based
Conditions in all cases: 5 days incubation
[1] = system: PC3
Source text: (§1) The assay is based on quantification of cell counts by a colorimetric detection of the cell associated proteins. The assay relies on the ability of sulforhodamine B (SRB) to bind to protein components of cells that have been fixed to tissue-culture plates by trichloroacetic acid (TCA). SRB is a bright-pink aminoxanthene dye with two sulfonic groups that bind to basic amino-acid residues under mild acidic conditions, and dissociate under basic conditions. As the binding of SRB is stoichiometric, the amount of dye extracted from stained cells is directly proportional to the cell mass.
(§2) Cell lines: All cell lines were obtained from ATCC (Manassas, Va.). Cultivation media containing Glutamax, and trypsin were purchased from Invitrogen (Carlsbad, Calif.). Doxorubicin, Clofarabine, TCA and SRB were from Sigma-Aldrich (St. Louis, Mo.). Gemcitabine was obtained from Moravek Biochemicals (Brea, Calif.)
(§3) • 1. Trypsinize the sub-confluent cells, count them, and adjust the cell concentrations according to the cell counts listed in Table 1. • 2. Distribute the cells into the 96-well plates in 150 μL of media. Incubate the plates overnight in humidified CO2 incubator at 37° C. • 3. Fix one plate of each cell line with TCA. Discard the cultivation media from the plates by flicking them gently and add 100 ul cold 10% (vol/vol) TCA to each well. Incubate the plates at 4 degree refrigerator for 1 hour. Discard TCA from the plates by flicking them gently. Rinse plates four times in a washing basin containing tap water. Store the plates at room temperature. These plates represent cell counts on day zero. • 4. Prepare a set of medium solutions containing various concentrations of tested compounds by making 5-fold serial dilutions in 96-well plate. Add 50 μL of the diluted compounds per well. Include controls with untreated cells and cells treated with doxorubicin, clofarabine and gemcitabine. • 5. Incubate the plates for 5 days at 37° C. • 6. Fix the plates with TCA. Discard the cultivation media from the plates by flicking them gently and add 100 ul cold 10% (vol/vol) TCA to each well. Incubate the plates at 4 degree refrigerator for 1 hour. Discard TCA from the plates by flicking them gently. Rinse plates four times in a washing basin containing tap water. • 7. Remove excess water by tapping the plates face down, gently on a paper towel. Allow the plates to air-dry at room temperature. • 8. Add 100 ul of 0.057% SRB solution in 1% (vol/vol) acetic acid to each well of the plates fixed with TCA on day zero and five. Leave at room temperature for 30 minutes. • 9. Flick the plates gently to discard SRB. Rinse the plates four times with 1% (vol/vol) Acetic Acid. • 10. Store the plates at 37 degree incubator to facilitate faster drying. • 11. Once the plates are completely dry, add 200 ul of 10 mM Tris base solution (pH 10.5) to each well. Leave at room temperature for 30 minutes for SRB to solubilize. • 12. Measure the OD at 500 nm in a microplate reader • 13. Calculate the percentage of cell-growth inhibition using the next formula: % of control cell growth=100×(ODsample−mean ODday0)/(ODneg control−mean ODday0)
(§4) For GI50 determination, plot a dose-response curve between the compound concentration and percent of growth inhibition. GI50 values can be derived by fitting dose-response curves using sigmoidal dose response equation.

[2] = system: HCT-15
Source text: as §1, §2, §3, §4

[3] = system: Du-145
Source text: as §1, §2, §3, §4

[4] = system: Hs-578
Source text: as §1, §2, §3, §4

[5] = system: HCT-116
Source text: as §1, §2, §3, §4

[6] = system: NCI-H23
Source text: as §1, §2, §3, §4

[7] = system: A549
Source text: as §1, §2, §3, §4

[8] = system: BT-549
Source text: as §1, §2, §3, §4

Row | Structure (SMILES) | GI50 ([2]; Homo sapiens, HCT-15, 120 h) [nM] | GI50 ([3]; Homo sapiens, DU-145, 120 h) [nM] | GI50 ([6]; Homo sapiens, NCI-H23, 120 h) [nM] | GI50 ([8]; Homo sapiens, BT-549, 120 h) [nM] | GI50 ([1]; Homo sapiens, PC-3, 120 h) [nM] | GI50 ([5]; Homo sapiens, HCT-116, 120 h) [nM] | GI50 ([7]; Homo sapiens, A549, 120 h) [nM] | GI50 [1] [nM] | GI50 [4] [nM] | GI50 [5] [nM] | GI50 [7] [nM] | GI50 [2] [nM] | GI50 [3] [nM] | GI50 [6] [nM] | GI50 [8] [nM] | GI50 ([4]; Hs578, 120 h) [nM]
1 | CCCCOC(=O)[C@H](C)NP(=O)(COCCn1cnc2c(OCCC)nc(N)nc21)Oc1ccccc1 (single isomer, unassigned) [Example 52a] | 553 | 0.3 | 0.9 | 105 |  |  |  | 8 | 13 | 43 | 48 |  |  |  |  | 
2 | CCCCOC(=O)[C@H](C)NP(=O)(COCCn1cnc2c(OCCC)nc(N)nc21)Oc1ccccc1 (single isomer, unassigned) [Example 52b] |  |  |  |  |  |  |  | 3 | 2 | 11 | 15 | 517 | 0.3 | 1 | 100 | 
3 | CCCOc1nc(N)nc2c1ncn2CCOCP(=O)(N[C@@H](C)C(=O)OCC)Oc1ccccc1 (single isomer, unassigned) [Example 53a] | 2110 |  |  |  |  |  |  | 31 | 62 | 154 | 268 |  | 2 | 5 | 249 | 
4 | CCCOc1nc(N)nc2c1ncn2CCOCP(=O)(N[C@@H](C)C(=O)OCC)Oc1ccccc1 (single isomer, unassigned) [Example 53b] |  |  |  |  |  |  |  | 180 | 177 | 329 | 647 | 2040 | 14 | 70 | 564 | 
5 | COc1nc(N)nc2c1ncn2CCOCP(=O)(O)O [Example 2, [2-(2-Amino-6-methoxy-purin-9-yl)-ethoxymethyl]-phosphonic acid] | 4650 | 475 | 589 | 4870 | 3700 | 5900 | 2420 |  |  |  |  |  |  |  |  | 2010
6 | CCCCOc1nc(N)nc2c1ncn2CCOCP(=O)(O)O [Example 4, [2-(2-Amino-6-butoxy-purin-9-yl)-ethoxymethyl]-phosphonic acid] | 2980 | 235 | 633 | 3760 | 1440 | 3130 | 4540 |  |  |  |  |  |  |  |  | 3320
7 | Nc1nc(OC2CCCCC2)c2ncn(CCOCP(=O)(O)O)c2n1 [Example 6, [2-(2-Amino-6-cyclohexyloxy-purin-9-yl)-ethoxymethyl]-phosphonic acid] | 13000 | 439 | 6000 | 17000 | 3010 | > 10000 | > 10000 |  |  |  |  |  |  |  |  | 11000
8 | Nc1nc(OC2CCC2)c2ncn(CCOCP(=O)(O)O)c2n1 [Example 9, [2-(2-Amino-6-cyclobutoxy-purin-9-yl)-ethoxymethyl]-phosphonic acid] | 1220 | 77 | 359 | 1550 | 955 | 1720 | 1830 |  |  |  |  |  |  |  |  | 1550
9 | Nc1nc(OC2CCCC2)c2ncn(CCOCP(=O)(O)O)c2n1 [Example 10, [2-(2-Amino-6-cyclopentyloxy-purin-9-yl)-ethoxymethyl]-phosphonic acid] | 2380 | 54 | 603 | 2990 | 1010 | 1790 | 3060 |  |  |  |  |  |  |  |  | 2260
10 | CCCCOC(=O)[C@H](C)NP(=O)(COCCn1cnc2c(OCCC)nc(N)nc21)N[C@@H](C)C(=O)OCCCC [Example 13] | 1090 | 2 | 4 | 61 | 11 | 13 | 52 |  |  |  |  |  |  |  |  | 105
11 | CCCOc1nc(N)nc2c1ncn2CCOCP(=O)(N[C@@H](C)C(=O)OCC)N[C@@H](C)C(=O)OCC [Example 14] | > 10000 | 28 | 29 | 266 | 275 | 488 | 381 |  |  |  |  |  |  |  |  | 202
12 | CCCOc1nc(N)nc2c1ncn2CCOCP(=O)(N[C@@H](Cc1ccccc1)C(=O)OCC)N[C@@H](Cc1ccccc1)C(=O)OCC [Example 15] | 1280 | 3 | 7 | 102 | 26 | 18 | 81 |  |  |  |  |  |  |  |  | 112
13 | CCCCOC(=O)[C@H](C)NP(=O)(COCCn1cnc2c(OCCCC)nc(N)nc21)N[C@@H](C)C(=O)OCCCC [Example 36] | 869 |  | 2 | 120 | 3 | 7 | 13 |  |  |  |  |  |  |  |  | 11

Now from value to compound, other results behind:

Row | GI50 ([2]; Homo sapiens, HCT-15, 120 h) [nM] | GI50 ([3]; Homo sapiens, DU-145, 120 h) [nM] | GI50 ([6]; Homo sapiens, NCI-H23, 120 h) [nM] | GI50 ([8]; Homo sapiens, BT-549, 120 h) [nM] | GI50 ([1]; Homo sapiens, PC-3, 120 h) [nM] | GI50 ([5]; Homo sapiens, HCT-116, 120 h) [nM] | GI50 ([7]; Homo sapiens, A549, 120 h) [nM] | Structure (SMILES) | GI50 [1] [nM] | GI50 [4] [nM] | GI50 [5] [nM] | GI50 [7] [nM] | GI50 [2] [nM] | GI50 [3] [nM] | GI50 [6] [nM] | GI50 [8] [nM] | GI50 ([4]; Hs578, 120 h) [nM]
14 | 886 | 76 | 287 | 900 | 1100 | 1100 | 1240 | CCCOc1nc(N)nc2c1ncn2CCOCP(=O)(O)O [Example 1, [2-(2-Amino-6-propoxy-purin-9-yl)-ethoxymethyl]-phosphonic acid] |  |  |  |  |  |  |  |  | 3810
15 | 2530 | 177 | 551 | 2480 | 1380 | 2440 | 2980 | CC(C)Oc1nc(N)nc2c1ncn2CCOCP(=O)(O)O [Example 3, [2-(2-Amino-6-isopropoxy-purin-9-yl)-ethoxymethyl]-phosphonic acid] |  |  |  |  |  |  |  |  | 2450
16 | 2440 | 223 | 639 | 2000 | 2480 | 3590 | 2840 | CCOc1nc(N)nc2c1ncn2CCOCP(=O)(O)O [Example 5, [2-(2-Amino-6-ethoxy-purin-9-yl)-ethoxymethyl]-phosphonic acid] |  |  |  |  |  |  |  |  | 2590
17 | 2610 | 101 | 596 | 2570 | 595 | 2450 | 3360 | CCCCCOc1nc(N)nc2c1ncn2CCOCP(=O)(O)O [Example 7, [2-(2-Amino-6-pentyloxy-purin-9-yl)-ethoxymethyl]-phosphonic acid] |  |  |  |  |  |  |  |  | 1570
18 | 4140 | 536 | 675 | 2710 | 2830 | 5400 | 2820 | Nc1nc(OC2CC2)c2ncn(CCOCP(=O)(O)O)c2n1 [Example 8, [2-(2-Amino-6-cyclopropoxy-purin-9-yl)-ethoxymethyl]-phosphonic acid] |  |  |  |  |  |  |  |  | 3340
19 | > 10000 | 805 | 1980 | > 10000 | 3760 | 11000 | 11000 | COCCOc1nc(N)nc2c1ncn2CCOCP(=O)(O)O [Example 11, {2-[2-Amino-6-(2-methoxy-ethoxy)-purin-9-yl]-ethoxymethyl}-phosphonic acid] |  |  |  |  |  |  |  |  | 5100
20 | 38000 | 1230 | 2190 | 70000 | 6100 | 38000 | 35000 | Nc1nc(NC2CC2)c2ncn(CCOCP(=O)(O)O)c2n1 [Example 12, [2-(2-Amino-6-cyclopropylamino-purin-9-yl)-ethoxymethyl]-phosphonic acid] |  |  |  |  |  |  |  |  | 18000
21 | 1520 |  | 1 | 17 | 32 | 11 | 102 | CCCCOC(=O)[C@H](C)NP(=O)(COCCn1cnc2c(OC3CC3)nc(N)nc21)N[C@@H](C)C(=O)OCCCC [Example 43] |  |  |  |  |  |  |  |  | 32
